Each structure is given as a SMILES string.

Chain of human GPR43 (O15552 whole entry): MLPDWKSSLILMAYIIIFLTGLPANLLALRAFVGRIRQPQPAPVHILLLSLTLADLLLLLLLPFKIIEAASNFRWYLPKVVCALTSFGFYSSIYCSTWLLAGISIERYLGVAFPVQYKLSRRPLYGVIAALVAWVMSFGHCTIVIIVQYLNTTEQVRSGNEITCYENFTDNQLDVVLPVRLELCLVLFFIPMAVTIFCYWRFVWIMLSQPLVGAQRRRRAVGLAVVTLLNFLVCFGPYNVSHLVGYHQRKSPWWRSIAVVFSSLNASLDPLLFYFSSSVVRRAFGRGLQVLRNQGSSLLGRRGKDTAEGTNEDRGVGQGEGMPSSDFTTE

In this experiment the target is human GPR43 (Homo sapiens (Human), UniProt O15552). Put plainly: Ca-Flux functional assay: determination of agonist/positive allosteric modulator (PAM) activity. It is filed as cell-based. Conditions: CHO-K1 Gα16 cells stably expressing human GPR43; compound added with EC20 sodium acetate; intracellular Ca2+ by FLIPR; does not distinguish agonist from PAM. The procedure:
Ca-Flux Functional Assay: Determination of Agonist/Positive Allosteric Modulator (PAM) Activity
GPR43 agonist/PAM activity was determined by measuring changes in intracellular calcium levels using a Ca^2+ sensitive fluorescent dye. The changes in fluorescent signal were monitored by FLIPR (manufactured by Molecular Devices). GPR43 mediated increases in intracellular Ca^2+ concentration were readily detected upon activation with sodium acetate. Prior to the assay (24 hours), CHO-K1 Gα16 cells stably expressing human GPR43 were-seeded in cell culture medium in black, clear-bottom 384-well plates (Corning Inc) and grown overnight at 37° C., 5% CO2. On the day of the assay, cell culture media was removed and cells were loaded with Calcium 5 Dye (Molecular Devices) diluted in HBSS containing 25 mM HEPES, 2.5 mM Probenecid, 0.1% BSA for 1 hour at 37° C., 5% CO2. 10 point half log concentration response curves of sodium acetate from 10 mM were conducted prior to the testing of compounds to calculate the sodium acetate concentration that produces 20% of the maximal response (EC20). Test compounds (at 10 point half log concentration response curves from 10 μM) were added in the presence of sodium acetate to achieve a final concentration that produces approximately 20% maximal response as calculated from the previous experiment. The changes in fluorescent signal were monitored by FLIPR upon addition of the compound/EC20 sodium acetate mix. The EC50 values were determined from ten point concentration response curves. Curves were generated using the average of two wells for each data point.
The above assay detects both GPR43 receptor agonists and positive allosteric modulators of the GPR43 receptor, without distinguishing between the two. Activity in either regard is useful in the treatment of conditions associated with GPR43 receptor activity.
As a reminder, the EC50 is the concentration that produces a half-maximal response. Lower therefore signals a more potent agent. Consider `CCN(Cc1cnn(C)c1)c1ncnc2c(S(=O)(=O)c3ccccc3)c(N)[nH]c12` [Example 64, 7-(benzenesulfonyl)-4-N-ethyl-4-N-[(1-methyl-1H-pyrazol-4-yl)methyl]-5H-pyrrolo[3,2-d]pyrimidine-4,6-diamine], for which the EC50 turned out to be 2350 nM. With `CCNc1ncnc2c(S(=O)(=O)c3ccccc3)c(N)[nH]c12` [Example 65, 7-(benzenesulfonyl)-4-N-ethyl-5H-pyrrolo[3,2-d]pyrimidine-4,6-diamine], the EC50 stood at 6820 nM. Next, `Nc1[nH]c2c(-c3ccncc3)ncnc2c1S(=O)(=O)c1ccccc1` [Example 66, 7-(benzenesulfonyl)-4-(pyridin-4-yl)-5H-pyrrolo[3,2-d]pyrimidin-6-amine]: 2410 nM; `Nc1[nH]c2c(-c3cccnc3)ncnc2c1S(=O)(=O)c1ccccc1` [Example 67, 7-(benzenesulfonyl)-4-(pyridin-3-yl)-5H-pyrrolo[3,2-d]pyrimidin-6-amine]: 3170 nM; `COc1ccc(S(=O)(=O)c2c(N)[nH]c3c(N4CCC(F)(F)CC4)ncnc23)cc1` [Example 68, 4-(4,4-difluoropiperidin-1-yl)-7-(4-methoxybenzenesulfonyl)-5H-pyrrolo[3,2-d]pyrimidin-6-amine]: 32 nM. Next, `CC1CCCCN1c1ncnc2c(S(=O)(=O)c3ccccc3)c(N)[nH]c12` (stereo not shown) [Example 69, 7-(benzenesulfonyl)-4-(2-methylpiperidin-1-yl)-5H-pyrrolo[3,2-d]pyrimidin-6-amine]: 49 nM; `Nc1[nH]c2c(NCC3CC3)ncnc2c1S(=O)(=O)c1ccccc1` [Example 70, 7-(benzenesulfonyl)-4-N-(cyclopropylmethyl)-5H-pyrrolo[3,2-d]pyrimidine-4,6-diamine]: 763 nM; `C=C(C)c1ncnc2c(S(=O)(=O)c3ccc(OC)cc3)c(N)[nH]c12` [Example 71, 7-(4-methoxybenzenesulfonyl)-4-(prop-1-en-2-yl)-5H-pyrrolo[3,2-d]pyrimidin-6-amine]: 553 nM. Next, `COc1ccc(S(=O)(=O)c2c(N)[nH]c3c(N4CCC5(CC4)CC5)ncnc23)cc1` [Example 72, 4-{6-azaspiro[2.5]octan-6-yl}-7-(4-methoxybenzenesulfonyl)-5H-pyrrolo[3,2-d]pyrimidin-6-amine]: 26 nM; `COc1ccc(S(=O)(=O)c2c(N)[nH]c3c(C4CCCC4)ncnc23)cc1` [Example 73, 4-cyclopentyl-7-(4-methoxybenzenesulfonyl)-5H-pyrrolo[3,2-d]pyrimidin-6-amine]: 118 nM; `Nc1[nH]c2c(N3CCC(F)(F)CC3)ncnc2c1S(=O)(=O)c1ccccc1F` [Example 74, 4-(4,4-difluoropiperidin-1-yl)-7-(2-fluorobenzenesulfonyl)-5H-pyrrolo[3,2-d]pyrimidin-6-amine]: 9 nM.

`C[C@@H]1CN(c2ncnc3c(S(=O)(=O)c4ccccc4)c(N)[nH]c23)C[C@H](C)O1` [Example 75, 7-(benzenesulfonyl)-4-[(2R,6S)-2,6-dimethylmorpholin-4-yl]-5H-pyrrolo[3,2-d]pyrimidin-6-amine] displayed a half-maximal effective concentration (EC50) of 14 nM. Next, `COc1ccc(S(=O)(=O)c2c(N)[nH]c3c(-c4ccccc4)ncnc23)cc1` [Example 76, 7-(4-methoxybenzenesulfonyl)-4-phenyl-5H-pyrrolo[3,2-d]pyrimidin-6-amine]: 135 nM; `Nc1[nH]c2c(Br)cncc2c1S(=O)(=O)c1ccccc1` [Example 77, 3-(benzenesulfonyl)-7-bromo-1H-pyrrolo[3,2-c]pyridin-2-amine]: 628 nM. As to `Nc1[nH]c2c(C3=CCCCC3)ncnc2c1S(=O)(=O)C1CCOC1` (stereo not shown) [Example 78, 4-(cyclohex-1-en-1-yl)-7-(oxolane-3-sulfonyl)-5H-pyrrolo[3,2-d]pyrimidin-6-amine], a half-maximal effect (EC50) was put at 2340 nM. `CCC1CN(c2ncnc3c(S(=O)(=O)c4ccccc4)c(N)[nH]c23)CCO1` (stereo not shown) [Example 79, 7-(benzenesulfonyl)-4-(2-ethylmorpholin-4-yl)-5H-pyrrolo[3,2-d]pyrimidin-6-amine] returned an EC50 of 40 nM. `Nc1[nH]c2c(N3CCOC(C4CC4)C3)ncnc2c1S(=O)(=O)c1ccccc1` (stereo not shown) [Example 80, 7-(benzenesulfonyl)-4-(2-cyclopropylmorpholin-4-yl)-5H-pyrrolo[3,2-d]pyrimidin-6-amine] gave an EC50 of 133 nM. The value for `COCC1CN(c2ncnc3c(S(=O)(=O)c4ccccc4)c(N)[nH]c23)CCO1` (stereo not shown) [Example 81, 7-(benzenesulfonyl)-4-[2-(methoxymethyl)morpholin-4-yl]-5H-pyrrolo[3,2-d]pyrimidin-6-amine] was 1210 nM; that for `Nc1[nH]c2c(N3CCCOCC3)ncnc2c1S(=O)(=O)c1ccccc1` [Example 82, 7-(benzenesulfonyl)-4-(1,4-oxazepan-4-yl)-5H-pyrrolo[3,2-d]pyrimidin-6-amine] was 1150 nM; that for `CCN(CC1CCCCC1)c1ncnc2c(S(=O)(=O)c3ccccc3)c(N)[nH]c12` [Example 83, 7-(benzenesulfonyl)-4-N-(cyclohexylmethyl)-4-N-ethyl-5H-pyrrolo[3,2-d]pyrimidine-4,6-diamine] was 100 nM. `CC1(C)CN(c2ncnc3c(S(=O)(=O)c4ccccc4)c(N)[nH]c23)CCO1` [Example 84, 7-(benzenesulfonyl)-4-(2,2-dimethylmorpholin-4-yl)-5H-pyrrolo[3,2-d]pyrimidin-6-amine] returned an EC50 of 29 nM. Next, `CC1CN(c2ncnc3c(S(=O)(=O)c4ccccc4)c(N)[nH]c23)C(C)CO1` (stereo not shown) [Example 85, 7-(benzenesulfonyl)-4-(2,5-dimethylmorpholin-4-yl)-5H-pyrrolo[3,2-d]pyrimidin-6-amine]: 19 nM; `C[C@H]1CN(c2ncnc3c(S(=O)(=O)c4ccccc4)c(N)[nH]c23)CCO1` [Example 86, 7-(benzenesulfonyl)-4-[(2S)-2-methylmorpholin-4-yl]-5H-pyrrolo[3,2-d]pyrimidin-6-amine]: 19 nM; `C[C@@H]1CN(c2ncnc3c(S(=O)(=O)c4ccccc4)c(N)[nH]c23)C[C@@H](C)O1` [Example 87, 7-(benzenesulfonyl)-4-[(2R,6R)-2,6-dimethylmorpholin-4-yl]-5H-pyrrolo[3,2-d]pyrimidin-6-amine]: 34 nM. Next, `Nc1[nH]c2c(C3CCCC3)ncnc2c1S(=O)(=O)c1ccccc1F` [Example 88, 4-cyclopentyl-7-(2-fluorobenzenesulfonyl)-5H-pyrrolo[3,2-d]pyrimidin-6-amine]: 21 nM; `Nc1[nH]c2c(C3CCCCC3)ncnc2c1S(=O)(=O)c1ccccc1F` [Example 89, 4-cyclohexyl-7-(2-fluorobenzenesulfonyl)-5H-pyrrolo[3,2-d]pyrimidin-6-amine]: 11 nM.

In the case of `CN(Cc1cccc(Cl)c1)c1ncnc2c(S(=O)(=O)c3ccccc3)c(N)[nH]c12` [Example 90, 7-(benzenesulfonyl)-4-N-[(3-chlorophenyl)methyl]-4-N-methyl-5H-pyrrolo[3,2-d]pyrimidine-4,6-diamine], it took 41 nM to reach a half-maximal effect (EC50). Next, `CN(CC1CCCCO1)c1ncnc2c(S(=O)(=O)c3ccccc3)c(N)[nH]c12` (stereo not shown) [Example 91, 7-(benzenesulfonyl)-4-N-methyl-4-N-(oxan-2-ylmethyl)-5H-pyrrolo[3,2-d]pyrimidine diamine]: 1400 nM; `COc1ccccc1CN(C)c1ncnc2c(S(=O)(=O)c3ccccc3)c(N)[nH]c12` [Example 92, 7-(benzenesulfonyl)-4-N-[(2-methoxyphenyl)methyl]-4-N-methyl-5H-pyrrolo[3,2-d]pyrimidine-4,6-diamine]: 209 nM; `CN(CC1OCCO1)c1ncnc2c(S(=O)(=O)c3ccccc3)c(N)[nH]c12` [Example 93, 7-(benzenesulfonyl)-4-N-(1,3-dioxolan-2-ylmethyl)-4-N-methyl-5H-pyrrolo[3,2-d]pyrimidine-4,6-diamine]: 9510 nM.

The molecule `CCN(CC)c1ncnc2c(S(=O)(=O)c3ccccc3)c(N)[nH]c12` [Example 94, 7-(benzenesulfonyl)-4-N,4-N-diethyl-5H-pyrrolo[3,2-d]pyrimidine-4,6-diamine] yielded an EC50 of 61 nM. Take `CN(Cc1ccccn1)c1ncnc2c(S(=O)(=O)c3ccccc3)c(N)[nH]c12` [Example 95, 7-(benzenesulfonyl)-4-N-methyl-4-N-(pyridin-2-ylmethyl)-5H-pyrrolo[3,2-d]pyrimidine-4,6-diamine]: the midpoint of the response, the EC50, lay at 7130 nM. Next, `CN(CC(F)F)c1ncnc2c(S(=O)(=O)c3ccccc3)c(N)[nH]c12` [Example 96, 7-(benzenesulfonyl)-4-N-(2,2-difluoroethyl)-4 N-methyl-5H-pyrrolo[3,2-d]pyrimidine-4,6-diamine]: 162 nM; `CCN(C)c1ncnc2c(S(=O)(=O)c3ccccc3)c(N)[nH]c12` [Example 97, 7-(benzenesulfonyl)-4-N-ethyl-4-N-methyl-5H-pyrrolo[3,2-d]pyrimidine-4,6-diamine]: 447 nM.

The record behind these values is patent US10059713B2 (Takeda Pharmaceutical Company Limited, priority 2014, dated 2018).
